Results as given in publication PMC8344233, “Anticancer activity and toxicity of new quaternary ammonium geldanamycin derivative salts and their mixtures with potentiators” (Journal of Enzyme Inhibition and Medicinal Chemistry, 2021).
In brackets after ≈: the same amount, converted by molar mass.

Key:
MDA-MB-231 = experiment: MTT cytotoxicity assay, MDA-MB-231 (1st panel); type: cell-based, human; conditions: for IC50: Homo sapiens, MDA-MB-231, ± SD, MTT, 72 h; for selectivity index SI (MDA-MB-231): IC50 normal cell line CCD39Lu/IC50 MDA-MB-231
Experimental: (§1) Cell survival was measured as the percentage absorbance compared to the control (nontreated cells). […]
(§2) SI indexes were calculated from equation SI = IC50 normal cell line HDF/IC50 respective cancerous cell line (Table 2). A beneficial SI > 1.0 indicates a compound with efficacy against tumor cell greater than the toxicity against normal cells.
(§3) All experiments were carried out with human breast adenocarcinoma (MDA-MB-231 and MCF-7), hepatocellular carcinoma (HepG2), human cervical adenocarcinoma (HeLa) cancer cell lines, and human normal lung fibroblast (CCD39Lu) cell line. The cell line was purchased from the European Collection of Cells Cultures (ECACC, Salisbury, UK), and cultured in DMEM with phenol red supplemented with 10% (v/v) FBS, 1% (v/v) penicillin/streptomycin, and 1% (v/v) L-glutamine at 37 °C, in a humidified atmosphere containing 5% CO2.
(§4) The tested compounds were dissolved in DMSO to the final concentration 10 mM and stored […]
(§5) The cytotoxic effect of the tested compounds was determined by MTT assay. MDA-MB-231, MCF-7, HepG2, HeLa, and CCD39Lu cells were seeded in 96 wells plates at density 2x10^4 cells/well and incubated overnight under cell culture condition. Next, cells were treated with tested compounds at concentrations of 10 µM; 5 µM; 2.5 µM; 1.2 µM; 0.6 µM; 0.3 µM; 0.15 […]
(§6) µM. Moreover, GDM (for MCF-7) and 8 (for MCF-7 and MDA-MB-231) due to high cytotoxicity, were additionally tested at a lower concentration range of 2.5 µM; 1.2 µM; 0.6 µM; 0.3 µM; 0.15µM; 0.07 µM; 0.03 µM. DMSO was used as a control, and the concentration […]
(§7) Tested compounds were added to cells in the medium without phenol red. Cells were incubated 72 h at 37 °C in a humidified atmosphere containing 5% CO2.
(§8) Then, the medium was aspirated and MTT solution at a concentration of 0.59 mg/mL in cell culture medium was added to each well. Plates were incubated for 1.5 hours at 37 °C, and then plates were centrifuged for 3 minutes. The formazan crystals were dissolved in 200 µl DMSO and plates were agitated on a plate shaker at 300 –500 rpm for 10 minutes. Absorbance at 570 nm was measured using a plate reader (Biotek Instruments, Elx -800). Data were normalized to the mean absorption of control cells. All experiments were performed at least three times. […]

MCF-7 = experiment: MTT cytotoxicity assay, MCF-7 (1st panel); type: cell-based, human; conditions: for IC50: ± SD, MTT, 72 h; for selectivity index SI (MCF-7): IC50 normal cell line CCD39Lu/IC50 MCF-7
Experimental: as §1, §2, §3, §4, §5, §6, §7, §8

HeLa = experiment: MTT cytotoxicity assay, HeLa (1st panel); type: cell-based, human; conditions: for IC50: Homo sapiens, HeLa, ± SD, MTT, 72 h; for selectivity index SI (HeLa): IC50 normal cell line CCD39Lu/IC50 HeLa
Experimental: as §1, §2, §3, §4, §5, §6, §7, §8

HepG2 = experiment: MTT cytotoxicity assay, HepG2 (1st panel); type: cell-based, human; conditions: for IC50: Homo sapiens, HepG2, ± SD, MTT, 72 h; for selectivity index SI (HepG2): IC50 normal cell line CCD39Lu/IC50 HepG2
Experimental: as §1, §2, §3, §4, §5, §6, §7, §8

CCD39Lu = experiment: MTT cytotoxicity assay, normal lung fibroblasts CCD39Lu; type: cell-based; conditions: Fibroblast, ± SD, healthy human lung fibroblasts, 72 h, read-out: IC50 CCD39Lu (toxicity in normal cells)
Experimental: as §1, §2, §3, §4, §5, §6, §7, §8

SKBR-3 = experiment: SRB cytotoxicity assay, SKBR-3 (2nd panel); type: cell-based, human; conditions: for IC50: Homo sapiens, SK-BR-3, ± SD, SRB, 72 h, mixtures equimolar 1:1; for selectivity index SIHDF (SKBR-3): IC50 normal cell line HDF/IC50 SKBR-3
Experimental: (§9) Human cancer cells SKBR-3 (human breast cancer cell line) and SKOV-3 (ovarian cancer cell line) were cultured in McCoy’s Modified Medium. […]
(§10) Medium. Human Dermal Fibroblasts cell line (HDF) was cultured in Fibroblast Basal Medium.
(§11) Each medium was supplemented with 10% fetal bovine serum, 1% L-glutamine, and 1% penicillin/streptomycin solution. The cell lines were kept in the incubator at 37◦C. The optimal plating density of cell lines was determined to be 5 × 104. All the cell lines and mediums were obtained from American Type Culture Collection (ATCC) supplied by LGC-Standards. The protein-staining SRB (Sigma-Aldrich) microculture colorimetric assay, developed by the National Cancer Institute (USA) for in vitro antitumor screening was used in this study, to estimate the cell number by providing a sensitive index of total cellular protein content, being linear to cell density. The monolayer cell culture was trypsinized and the cell count was adjusted to 5 × 10^4 cells. To each well of the 96 well microtiter plate, 0.1 mL of the diluted cell suspension (approximately […]) was added. After 24 hours, when a partial monolayer was formed, the supernatant was washed out and 100 μL of six different compound concentrations (0.1, 0.2, 1, 2, 10, and 20 μM) were added to the cells in microtitre plates. The tested compounds were dissolved in DMSO (containing 10 % of water) (100 μL) and the […]
(§12) lines. The cells were exposed to compounds for 72 hours at 37 °C in a humidified atmosphere (90% RH) containing 5% CO2. After that, 25 μL of 50 % trichloroacetic acid was added to the wells and the plates were incubated for 1 hour at 4◦C. The plates were then washed out with the distilled water to remove traces of medium and next dried by the air. The air-dried plates were stained with 100 μL of 0.4% sulforhodamine B (prepared in 1 % acetic acid) and kept for 30 minutes at room temperature. The unbound dye was removed by rapidly washing with 1% […]
(§13) acetic acid and then air dried overnight. The protein-bound dye was dissolved in 100 μL of 10 mM unbuffered Tris base (pH 10.5) for optical density determination at 490 nm. All cytotoxicity experiments were performed three times. Cell survival was measured as the percentage absorbance compared to the control (nontreated cells). Cytarabine (ara-C) and GDM were used as the internal standards. Additionally biological assays were performed in Human Dermal Fibroblasts cell line (HDF) in aim to evaluate cytotoxicity of GDM and its 1-13 analogs in healthy cells. SI indexes were calculated from equation SI = IC50 normal cell line HDF/IC50 respective cancerous cell line (Table 2). A beneficial SI > 1.0 indicates a compound with efficacy against tumor cell greater than the toxicity against normal cells. […]

SKOV-3 = experiment: SRB cytotoxicity assay, SKOV-3 (2nd panel); type: cell-based, human; conditions: for IC50: Homo sapiens, SK-OV-3, ± SD, SRB, 72 h, mixtures equimolar 1:1; for selectivity index SIHDF (SKOV-3): IC50 normal cell line HDF/IC50 SKOV-3
Experimental: as §9, §10, §11, §12, §13

U-87 = experiment: SRB cytotoxicity assay, U-87 (2nd panel); type: cell-based, human; conditions: for IC50: Homo sapiens, U-87 MG, ± SD, SRB, 72 h; for selectivity index SIHDF (U-87): IC50 normal cell line HDF/IC50 U-87
Experimental: U-87MG cells (glioblastoma cell line) were cultured in Eagle’s Minimal Essential Medium. Human Dermal Fibroblasts cell line (HDF) was cultured in Fibroblast Basal Medium.
as §11, §12, §13

A-549 = experiment: SRB cytotoxicity assay, A-549 (2nd panel); type: cell-based, human; conditions: for IC50: Homo sapiens, A549, ± SD, SRB, 72 h; for selectivity index SIHDF (A-549): IC50 normal cell line HDF/IC50 A-549
Experimental: as §10, §11, §12, §13

physchem = conditions: water, Solubility SH2O

SMILES | IC50 (MDA-MB-231) | selectivity index SI (MDA-MB-231) (MDA-MB-231) | IC50 (MCF-7; Homo sapiens, MCF7, 72 h) | selectivity index SI (MCF-7) (MCF-7) | IC50 (HeLa) | selectivity index SI (HeLa) (HeLa) | IC50 (HepG2) | selectivity index SI (HepG2) (HepG2) | IC50 (CCD39Lu) | IC50 (SKBR-3) | selectivity index SIHDF (SKBR-3) (SKBR-3) | IC50 (SKOV-3) | selectivity index SIHDF (SKOV-3) (SKOV-3) | IC50 (U-87) | selectivity index SIHDF (U-87) (U-87) | IC50 (A-549) | selectivity index SIHDF (A-549) (A-549) | IC50 (MCF-7) | solubility (physchem)
C=CC[N+]12CCC(CC1)C(NC1=C3C[C@@H](C)C[C@H](OC)[C@H](O)[C@@H](C)/C=C(\C)[C@H](OC(N)=O)[C@@H](OC)/C=C\C=C(/C)C(=O)NC(=CC1=O)C3=O)C2 (stereo partly shown) [Compound 9] | 4650 ± 2650 nM | > 2.15 | 2340 ± 560 nM | > 4.27 | 9250 ± 980 nM | > 1.08 | > 10000 nM | > 1 | > 10000 nM | 3120 ± 10 nM | 1.70 | 3860 ± 50 nM | 1.37 | 3690 ± 80 nM | 1.43 | 3090 ± 10 nM | 1.71 |  | 
CO[C@H]1/C=C\C=C(/C)C(=O)NC2=CC(=O)C(NC3CN4CCC3CC4)=C(C[C@@H](C)C[C@H](OC)[C@H](O)[C@@H](C)/C=C(\C)[C@@H]1OC(N)=O)C2=O (stereo partly shown) [Compound 8] | 140 ± 10 nM | 6.21 | ~100 nM | 9.67 | 1060 ± 260 nM | 0.82 | 1250 ± 220 nM | 0.70 | 870 ± 220 nM | 1490 ± 290 nM | 2.16 | 1160 ± 920 nM | 2.78 | 1080 ± 160 nM |  | 940 ± 30 nM |  | 90 ± 10 nM | 150 µg/mL (≈ 229 µM)
CO[C@H]1/C=C\C=C(/C)C(=O)NC2=CC(=O)C(NC3CCC3)=C(C[C@@H](C)C[C@H](OC)[C@H](O)[C@@H](C)/C=C(\C)[C@@H]1OC(N)=O)C2=O [Compound 1] | 2450 ± 780 nM | > 4.08 | ~100 nM | > 76.92 | 1670 ± 540 nM | > 5.99 | 1750 ± 40 nM | > 5.71 | > 10000 nM | 7440 ± 90 nM | 4.03 | 8040 ± 240 nM | 3.73 | 7320 ± 490 nM | 4.10 | 9010 ± 630 nM | 3.33 | 130 ± 10 nM | 
CO[C@H]1/C=C\C=C(/C)C(=O)NC2=CC(=O)C(NC3C[N+]4(C/C=C/c5ccccc5)CCC3CC4)=C(C[C@@H](C)C[C@H](OC)[C@H](O)[C@@H](C)/C=C(\C)[C@@H]1OC(N)=O)C2=O (stereo partly shown) [Compound 13] | 4660 ± 2490 nM | > 2.15 | 2310 ± 970 nM | > 4.33 | 8140 ± 640 nM | > 1.23 | > 10000 nM | > 1 | > 10000 nM | 2020 ± 110 nM | 1.89 | 2170 ± 60 nM | 1.76 | 2260 ± 150 nM | 1.67 | 2060 ± 10 nM | 1.85 |  | > 5000 µg/mL
C/C=C/C[N+]12CCC(CC1)C(NC1=C3C[C@@H](C)C[C@H](OC)[C@H](O)[C@@H](C)/C=C(\C)[C@H](OC(N)=O)[C@@H](OC)/C=C\C=C(/C)C(=O)NC(=CC1=O)C3=O)C2 (stereo partly shown) [Compound 10] | 4640 ± 1510 nM | > 2.16 | 2510 ± 1030 nM | > 3.98 | 7430 ± 3210 nM | > 1.35 | > 10000 nM | > 1 | > 10000 nM | 1940 ± 520 nM | 1.53 | 1610 ± 130 nM | 1.84 | 1840 ± 110 nM | 1.61 | 1290 ± 70 nM | 2.29 |  | > 5000 µg/mL
